US10081624B2, “Heterocyclic compound” (Takeda Pharmaceutical Company Limited, priority 2014, dated 2018)

Experiments:
[1] = biological target: T1, HDAC1 enzyme (Homo sapiens, UniProt Q13547); assay: HDAC1 enzyme inhibitory assay (HDAC-Glo I/II Assay kit); format: biochemical; conditions: 1 μM test compound; read-out: HDAC1 inhibitory rate (%) (1 μM)
T1 construct: prepared by transducing full length HDAC1 and HDAC6 genes into Sf-9 insect cells; GST; purchased SignalChem; host or cells: Sf-9 insect cells
T1 sequence (Q13547 whole entry): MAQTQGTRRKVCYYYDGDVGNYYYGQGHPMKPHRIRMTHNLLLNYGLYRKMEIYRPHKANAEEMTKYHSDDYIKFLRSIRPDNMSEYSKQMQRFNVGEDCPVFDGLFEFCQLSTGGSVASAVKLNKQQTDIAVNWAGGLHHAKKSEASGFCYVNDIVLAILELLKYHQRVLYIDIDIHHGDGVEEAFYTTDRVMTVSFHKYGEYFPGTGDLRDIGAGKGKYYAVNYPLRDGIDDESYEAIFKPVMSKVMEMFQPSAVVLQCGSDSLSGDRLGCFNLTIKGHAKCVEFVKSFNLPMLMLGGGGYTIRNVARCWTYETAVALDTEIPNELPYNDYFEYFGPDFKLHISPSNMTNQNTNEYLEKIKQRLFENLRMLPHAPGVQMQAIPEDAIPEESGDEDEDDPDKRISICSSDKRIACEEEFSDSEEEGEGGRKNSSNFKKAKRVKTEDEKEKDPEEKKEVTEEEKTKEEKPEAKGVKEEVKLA
Outline: (§1)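 Luminescent HDAC-Glo I/II read-out after 20 min room-temperature reaction with substrate-developer, following a 60 min room-temperature enzyme–compound preincubation. Enzymes: full-length HDAC1 or HDAC6 from Sf-9 cells, GST-purified; buffer pH 7.5 Tris with NaCl, glutathione, 0.01% Tween-20. No-enzyme wells defined 100% inhibition.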

[2] = biological target: T2, HDAC6 enzyme (Homo sapiens, UniProt Q9UBN7); assay: HDAC6 enzyme inhibitory assay (HDAC-Glo I/II Assay kit); format: biochemical; conditions: 1 μM test compound; read-out: HDAC6 inhibitory rate (%) (1 μM)
T2 construct: prepared by transducing full length HDAC1 and HDAC6 genes into Sf-9 insect cells; GST; purchased SignalChem; host or cells: Sf-9 insect cells
T2 sequence (Q9UBN7 1-1215): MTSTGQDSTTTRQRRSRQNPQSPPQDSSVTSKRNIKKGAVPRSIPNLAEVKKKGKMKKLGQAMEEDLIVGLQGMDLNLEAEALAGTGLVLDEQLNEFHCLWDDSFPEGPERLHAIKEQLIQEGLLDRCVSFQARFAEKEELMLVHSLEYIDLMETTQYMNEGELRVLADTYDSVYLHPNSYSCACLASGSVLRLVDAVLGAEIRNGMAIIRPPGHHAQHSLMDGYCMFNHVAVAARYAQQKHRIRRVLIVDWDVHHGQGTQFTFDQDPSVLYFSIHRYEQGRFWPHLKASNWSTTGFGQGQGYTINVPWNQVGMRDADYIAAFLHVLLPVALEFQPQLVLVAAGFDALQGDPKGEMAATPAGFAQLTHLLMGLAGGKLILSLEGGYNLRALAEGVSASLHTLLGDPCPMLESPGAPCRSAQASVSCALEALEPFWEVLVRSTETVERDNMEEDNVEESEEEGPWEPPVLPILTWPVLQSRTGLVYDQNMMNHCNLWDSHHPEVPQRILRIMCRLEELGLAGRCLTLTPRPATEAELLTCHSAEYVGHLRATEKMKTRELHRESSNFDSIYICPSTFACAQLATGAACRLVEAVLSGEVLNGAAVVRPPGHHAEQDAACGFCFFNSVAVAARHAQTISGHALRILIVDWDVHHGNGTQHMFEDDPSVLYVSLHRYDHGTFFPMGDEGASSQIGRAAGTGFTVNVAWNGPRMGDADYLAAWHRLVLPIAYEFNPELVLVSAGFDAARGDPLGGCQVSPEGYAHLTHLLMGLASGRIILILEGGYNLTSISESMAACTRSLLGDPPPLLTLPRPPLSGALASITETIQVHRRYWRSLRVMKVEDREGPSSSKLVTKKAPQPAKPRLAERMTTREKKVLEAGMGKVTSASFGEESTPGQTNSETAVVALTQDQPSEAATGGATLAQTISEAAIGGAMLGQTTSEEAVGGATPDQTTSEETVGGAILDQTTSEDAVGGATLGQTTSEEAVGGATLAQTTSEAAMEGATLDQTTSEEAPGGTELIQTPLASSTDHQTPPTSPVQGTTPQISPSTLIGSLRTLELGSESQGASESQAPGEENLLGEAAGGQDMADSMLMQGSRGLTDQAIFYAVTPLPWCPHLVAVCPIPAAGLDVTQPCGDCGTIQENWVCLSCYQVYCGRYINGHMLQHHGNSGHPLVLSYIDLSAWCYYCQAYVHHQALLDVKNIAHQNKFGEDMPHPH
Outline: as §1

inhibition at 1 µM [1] [%]	inhibition at 1 µM [2] [%]	SMILES
12	96	O=C(NC[C@@H]1COCCN1C(=O)c1csnn1)c1ccc(-c2noc(C(F)(F)F)n2)cc1 [Example 142, N-(((3R)-4-(1,2,3-thiadiazol-4-ylcarbonyl)morpholin-3-yl)methyl)-4-(5-(trifluoromethyl)-1,2,4-oxadiazol-3-yl)benzamide]
14	96	Cc1ccc(C(=O)N2CCOC[C@H]2CNC(=O)c2ccc(-c3noc(C(F)(F)F)n3)cc2)s1 [Example 144, N-(((3R)-4-((5-methyl-2-thienyl)carbonyl)morpholin-3-yl)methyl)-4-(5-(trifluoromethyl)-1,2,4-oxadiazol-3-yl)benzamide]
15	97	Cc1csc(C(=O)N2CCOC[C@H]2CNC(=O)c2ccc(-c3noc(C(F)(F)F)n3)cc2)c1 [Example 145, N-(((3R)-4-((4-methyl-2-thienyl)carbonyl)morpholin-3-yl)methyl)-4-(5-(trifluoromethyl)-1,2,4-oxadiazol-3-yl)benzamide]
7	94	O=C(NC[C@@H]1COCCN1C(=O)C1CC1)c1ccc(-c2noc(C(F)(F)F)n2)cc1 [Example 147, N-(((3R)-4-(cyclopropylcarbonyl)morpholin-3-yl)methyl)-4-(5-(trifluoromethyl)-1,2,4-oxadiazol-3-yl)benzamide]
10	95	O=C(NC[C@@H]1COCCN1C(=O)CC1CC1)c1ccc(-c2noc(C(F)(F)F)n2)cc1 [Example 148, N-(((3R)-4-(cyclopropylacetyl)morpholin-3-yl)methyl)-4-(5-(trifluoromethyl)-1,2,4-oxadiazol-3-yl)benzamide]
12	96	O=C(NC[C@@H]1COCCN1C(=O)C1CCCC1)c1ccc(-c2noc(C(F)(F)F)n2)cc1 [Example 149, N-(((3R)-4-(cyclopentylcarbonyl)morpholin-3-yl)methyl)-4-(5-(trifluoromethyl)-1,2,4-oxadiazol-3-yl)benzamide]
20	99	O=C(NC[C@@H]1COCCN1C(=O)C1CCCCC1)c1ccc(-c2noc(C(F)(F)F)n2)cc1 [Example 152, N-(((3R)-4-(cyclohexylcarbonyl)morpholin-3-yl)methyl)-4-(5-(trifluoromethyl)-1,2,4-oxadiazol-3-yl)benzamide]
3	92	O=C(NC[C@@H]1COCCN1C(=O)C1CCOCC1)c1ccc(-c2noc(C(F)(F)F)n2)cc1 [Example 153, N-(((3R)-4-(tetrahydro-2H-pyran-4-ylcarbonyl)morpholin-3-yl)methyl)-4-(5-(trifluoromethyl)-1,2,4-oxadiazol-3-yl)benzamide]
15	99	O=C(NC[C@@H]1COCCN1C(=O)c1cc(F)cc(F)c1)c1ccc(-c2noc(C(F)(F)F)n2)cc1 [Example 155, N-(((3R)-4-(3,5-difluorobenzoyl)morpholin-3-yl)methyl)-4-(5-(trifluoromethyl)-1,2,4-oxadiazol-3-yl)benzamide]
31	92	Cn1nc2ccccc2c1C(=O)N1CCOC[C@H]1CNC(=O)c1ccc(-c2noc(C(F)(F)F)n2)cc1 [Example 157, N-(((3R)-4-((2-methyl-2H-indazol-3-yl)carbonyl)morpholin-3-yl)methyl)-4-(5-(trifluoromethyl)-1,2,4-oxadiazol-3-yl)benzamide]

The next lines start with the compound.

SMILES	inhibition at 1 µM [1] [%]	inhibition at 1 µM [2] [%]
Cc1nc2sccn2c1C(=O)N1CCOC[C@@H]1CNC(=O)c1ccc(-c2noc(C(F)(F)F)n2)cc1 [Example 91, N-(((3S)-4-((6-methylimidazo[2,1-b][1,3]thiazol-5-yl)carbonyl)morpholin-3-yl)methyl)-4-(5-(trifluoromethyl)-1,2,4-oxadiazol-3-yl)benzamide]	42	98
O=C(NC[C@H]1COCCN1C(=O)N1CCC[C@H]1CO)c1ccc(-c2noc(C(F)(F)F)n2)cc1 [Example 107, N-(((3S)-4-(((2S)-2-(hydroxymethyl)pyrrolidin-1-yl)carbonyl)morpholin-3-yl)methyl)-4-(5-(trifluoromethyl)-1,2,4-oxadiazol-3-yl)benzamide]	14	84
O=C(NC[C@H]1COCCN1C(=O)N1CCC[C@@H]1CO)c1ccc(-c2noc(C(F)(F)F)n2)cc1 [Example 108, N-(((3S)-4-(((2R)-2-(hydroxymethyl)pyrrolidin-1-yl)carbonyl)morpholin-3-yl)methyl)-4-(5-(trifluoromethyl)-1,2,4-oxadiazol-3-yl)benzamide]	2	100
O=C(NC[C@H]1COCCN1C(=O)N1C2CCC1COC2)c1ccc(-c2noc(C(F)(F)F)n2)cc1 [Example 109, N-(((3S)-4-(3-oxa-8-azabicyclo[3.2.1]oct-8-ylcarbonyl)morpholin-3-yl)methyl)-4-(5-(trifluoromethyl)-1,2,4-oxadiazol-3-yl)benzamide]	10	99
O=C(NC[C@H]1COCCN1C(=O)N1CC2CCC(C1)O2)c1ccc(-c2noc(C(F)(F)F)n2)cc1 [Example 110, N-(((3S)-4-(8-oxa-3-azabicyclo[3.2.1]oct-3-ylcarbonyl)morpholin-3-yl)methyl)-4-(5-(trifluoromethyl)-1,2,4-oxadiazol-3-yl)benzamide]	10	96
O=C(NC[C@@H]1COCCN1C(=O)c1cc2ccccc2o1)c1ccc(-c2noc(C(F)(F)F)n2)cc1 [Example 125, N-(((3R)-4-(1-benzofuran-2-ylcarbonyl)morpholin-3-yl)methyl)-4-(5-(trifluoromethyl)-1,2,4-oxadiazol-3-yl)benzamide]	19	100
O=C(NC[C@@H]1COCCN1C(=O)C1(c2ccccc2)CC1)c1ccc(-c2noc(C(F)(F)F)n2)cc1 [Example 128, N-(((3R)-4-((1-phenylcyclopropyl)carbonyl)morpholin-3-yl)methyl)-4-(5-(trifluoromethyl)-1,2,4-oxadiazol-3-yl)benzamide]	6	92
Cc1nonc1C(=O)N1CCOC[C@H]1CNC(=O)c1ccc(-c2noc(C(F)(F)F)n2)cc1 [Example 132, N-(((3R)-4-((4-methyl-1,2,5-oxadiazol-3-yl)carbonyl)morpholin-3-yl)methyl)-4-(5-(trifluoromethyl)-1,2,4-oxadiazol-3-yl)benzamide]	16	98
O=C(NC[C@@H]1COCCN1C(=O)c1ccno1)c1ccc(-c2noc(C(F)(F)F)n2)cc1 [Example 133, N-(((3R)-4-(1,2-oxazol-5-ylcarbonyl)morpholin-3-yl)methyl)-4-(5-(trifluoromethyl)-1,2,4-oxadiazol-3-yl)benzamide]	6	96
Cc1cc(C(=O)N2CCOC[C@H]2CNC(=O)c2ccc(-c3noc(C(F)(F)F)n3)cc2)on1 [Example 134, N-(((3R)-4-((3-methyl-1,2-oxazol-5-yl)carbonyl)morpholin-3-yl)methyl)-4-(5-(trifluoromethyl)-1,2,4-oxadiazol-3-yl)benzamide]	11	97
